Several values for one entry are separate records, joined by “and”; a condition that tells them apart may be missing. Equal entries are not always repeated.

Common to all, as to test: Disk assay, zone of inhibition
Common to all, as to assay type: cell-based

Experiment [1] deals with Escherichia coli, ATCC #8739. As to conditions: 1% solution in saline on disk, Plates 1-3, "No Zone" = no antibacterial activity observed. How it is done:
(§1) The antibiotic activity of a 1% memantine-lactose adduct solution in saline was assayed using a disk assay against three USP bacteria cultures: Staphylococcus aureus, Pseudomonas aeruginosa and Escherichia coli. A negative control, 0.9% saline disk, and a positive control, 1% gentamicin solution in saline, were included. Antibacterial activity was evaluated by measuring (in mm) the size of any clear zone of no growth (i.e., Zone of Inhibition) around each sample. A “No Zone” is reported when no antibacterial activity is observed. […] These experiments may be predictive of biological effects in humans or other mammals and/or may serve as models for use of the present invention in humans or other mammals for the treatment of infections caused by Gram positive or Gram negative bacteria. See, e.g., Kustimur et al., Chinese Medical Journal, 116(4):633-636 (2003).

Experiment [2] relates to Staphylococcus aureus, ATCC #6538. How it is done:
as §1

Experiment [3] concerns Pseudomonas aeruginosa, ATCC #9027. To be noted: 1% solution in saline on disk, Plates 1-3, "No Zone" = no antibacterial activity observed. How it is done: as §1

In the case of `CC12CC3CC(C)(C1)CC(NCC(=O)[C@@H](O)C(O[C@@H]1O[C@H](CO)[C@@H](O)[C@H](O)[C@H]1O)[C@H](O)CO)(C3)C2` (stereo partly drawn) [Memantine-lactose adduct], the “Zone of Inhibition” value in experiment [1] and in experiment [3] was “No Zone” each time. For the same compound, the “antibacterial activity (result in words)” value in experiment [2] (Staphylococcus aureus, 1% solution in saline, disk assay) is listed as “found to have antibacterial activity”.

As to gentamicin, the “Zone of Inhibition” value in experiment [1] was 15.5 mm and 16.8 mm; in experiment [2] (Staphylococcus aureus ATCC #6538, 1% solution in saline on disk, Plates 1-3, "No Zone" = no antibacterial activity observed) it was 19.3 mm and 19.1 mm and 15.8 mm; in experiment [3], 11.2 mm and 10.9 mm and 9.9 mm.

The values are drawn from US20060211650A1, “Reducing carbohydrate derivatives of adamantane amines, and synthesis and methods of use thereof” (Forest Laboratories, Inc., priority 2004, published 2006).
